biological target: ATP-dependent translocase ABCB1 (Homo sapiens, UniProt P08183); assay: TP_TRANSPORTER: transepithelial transport in Caco 2 cell; assay type: functional, cell-based
Sequence (P08183 whole entry): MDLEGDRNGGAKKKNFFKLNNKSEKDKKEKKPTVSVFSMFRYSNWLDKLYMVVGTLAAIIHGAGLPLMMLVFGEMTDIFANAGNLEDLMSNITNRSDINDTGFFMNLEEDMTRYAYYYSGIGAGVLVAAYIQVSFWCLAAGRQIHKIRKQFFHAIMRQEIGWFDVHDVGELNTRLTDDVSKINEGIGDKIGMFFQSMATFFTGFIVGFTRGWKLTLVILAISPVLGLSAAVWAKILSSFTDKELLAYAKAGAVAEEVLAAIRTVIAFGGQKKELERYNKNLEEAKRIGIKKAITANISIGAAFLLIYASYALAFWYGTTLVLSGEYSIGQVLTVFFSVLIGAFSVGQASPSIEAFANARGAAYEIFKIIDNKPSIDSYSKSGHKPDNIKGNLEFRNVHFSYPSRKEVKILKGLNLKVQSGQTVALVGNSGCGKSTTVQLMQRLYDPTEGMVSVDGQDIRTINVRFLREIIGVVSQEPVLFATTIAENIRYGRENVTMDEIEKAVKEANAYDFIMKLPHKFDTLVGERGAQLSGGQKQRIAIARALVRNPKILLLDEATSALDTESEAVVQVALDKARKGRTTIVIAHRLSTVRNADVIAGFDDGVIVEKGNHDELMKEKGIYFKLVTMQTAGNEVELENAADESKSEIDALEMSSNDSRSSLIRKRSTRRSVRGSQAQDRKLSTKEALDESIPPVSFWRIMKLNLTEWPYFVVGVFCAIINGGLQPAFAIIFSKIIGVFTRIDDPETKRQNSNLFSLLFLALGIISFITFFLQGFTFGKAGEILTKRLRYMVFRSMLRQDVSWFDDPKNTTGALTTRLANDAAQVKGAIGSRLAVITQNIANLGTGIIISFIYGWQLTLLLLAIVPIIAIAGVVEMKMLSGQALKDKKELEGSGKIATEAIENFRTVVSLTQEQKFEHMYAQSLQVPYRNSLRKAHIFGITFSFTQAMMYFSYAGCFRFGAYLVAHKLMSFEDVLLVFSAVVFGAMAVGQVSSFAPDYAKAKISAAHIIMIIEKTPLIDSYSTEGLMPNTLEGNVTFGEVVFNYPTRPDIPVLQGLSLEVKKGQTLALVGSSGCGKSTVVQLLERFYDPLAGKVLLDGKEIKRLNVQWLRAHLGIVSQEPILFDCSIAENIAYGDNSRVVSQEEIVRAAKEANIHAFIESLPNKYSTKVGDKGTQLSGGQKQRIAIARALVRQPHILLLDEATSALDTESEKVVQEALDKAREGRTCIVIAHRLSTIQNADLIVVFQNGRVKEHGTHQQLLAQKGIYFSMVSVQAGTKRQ

Activity, substrate [+]:
CO[C@H]1/C=C/O[C@@]2(C)Oc3c(C)c(O)c4c(O)c(c(/C=N/N5CCN(C)CC5)c(O)c4c3C2=O)NC(=O)/C(C)=C\C=C\[C@H](C)[C@H](O)[C@@H](C)[C@@H](O)[C@@H](C)[C@H](OC(C)=O)[C@@H]1C [RIFAMPIN]
C[C@H]1O[C@@H](O[C@H]2[C@@H](O)C[C@H](O[C@H]3[C@@H](O)C[C@H](O[C@H]4CC[C@@]5(C)[C@H](CC[C@@H]6[C@@H]5C[C@@H](O)[C@]5(C)[C@@H](C7=CC(=O)OC7)CC[C@]65O)C4)O[C@@H]3C)O[C@@H]2C)C[C@H](O)[C@@H]1O [DIGOXIN]
CC(=O)O[C@H]1C(=O)[C@@]2(C)[C@H]([C@H](OC(=O)c3ccccc3)[C@]3(O)C[C@H](OC(=O)[C@H](O)[C@@H](NC(=O)c4ccccc4)c4ccccc4)C(C)=C1C3(C)C)[C@]1(OC(C)=O)CO[C@@H]1C[C@@H]2O [PACLITAXEL]
C=CCNc1nc(NCC=C)nc(N2CCC(NCC(c3ccc(F)cc3)c3ccc(F)cc3)CC2)n1
CC[C@@]1(O)C(=O)OCc2c1cc1n(c2=O)Cc2cc3c(CN(C)C)c(O)ccc3nc2-1 [TOPOTECAN]
CC(C)(C)NC(=O)[C@@H]1C[C@@H]2CCCC[C@@H]2CN1C[C@@H](O)[C@H](Cc1ccccc1)NC(=O)[C@H](CC(N)=O)NC(=O)c1ccc2ccccc2n1 [SAQUINAVIR]
NS(=O)(=O)N1CCN(C2CN(CC[C@]3(c4ccc(Cl)c(Cl)c4)CCC(=O)N(CC4CC4)C3)C2)CC1
C=CC[C@@H]1/C=C(\C)C[C@H](C)C[C@H](OC)[C@H]2O[C@@](O)(C(=O)C(=O)N3CCCC[C@H]3C(=O)O[C@H](/C(C)=C/[C@@H]3CC[C@@H](O)[C@H](OC)C3)[C@H](C)[C@@H](O)CC1=O)[C@H](C)C[C@@H]2OC [TACROLIMUS ANHYDROUS]

Reference: ChEMBL document CHEMBL2074337, “Predicting P-glycoprotein effects on oral absorption: correlation of transport in Caco-2 with drug pharmacokinetics in wild-type and mdr1a(-/-) mice in vivo” (Pharm Res, 2004)
